pIC50: −log10 of the molar value. Where “and” joins values, the source holds several entries; their conditions need not be identical. Identical values can stand only once. Like-named read-outs stand apart in the source and are kept apart here.
What was measured:
Type in all cases: biochemical
[1] = target: T1, human MMP-1 (amino acids 100-262) (Homo sapiens, UniProt P03956); experiment: MMP dose response assay for determining IC50, MMP-1; conditions: recombinant catalytic domain, fluorescent-quench substrate 100 nM
T1 construct: human MMP-1 (amino acids 100-262); made in house
T1 sequence (P03956 100-262): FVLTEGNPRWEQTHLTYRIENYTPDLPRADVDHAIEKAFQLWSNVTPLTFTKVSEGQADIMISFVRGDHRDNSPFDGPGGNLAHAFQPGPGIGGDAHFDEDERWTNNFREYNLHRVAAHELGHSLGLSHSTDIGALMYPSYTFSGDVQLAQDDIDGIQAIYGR
Protocol: (§1) MMP Dose Response Assay for Determining IC50
(§2) The following method was used for determining IC50 values of different inhibitor compounds against multiple MMP enzymes. Frozen stocks of recombinantly produced MMPs were prepared in assay buffer (50 mM HEPES pH 7.4, 10 mM CaCl2, 0.05% Brij-35). […] Enzyme concentrations in the assay were determined empirically and set such that proteolytic activity was maintained in a linear range over the time-course of the experiment. […] Each concentration for each test compound was tested in triplicate. MMP enzymes were equilibrated with compounds for 1 hour at room temperature, then a fluorescent-quench substrate (Acetyl-Cys(Eu)-Pro-Leu-Gly-Leu-Lys-(QSY7)-Ala-Arg-amide) was added to a final concentration of 100 nM. […] Data was analyzed by first calculating average background value from wells that contained only substrate, and this value was subtracted from the entire plate. The 100%, or maximum value, was determined by averaging control wells that contained enzyme, substrate and DMSO. For each well, the percent of control was calculated by dividing the well value by the average DMSO value obtained above.

[2] = target: T2, human MMP-2 (amino acids 1-660) (Homo sapiens, UniProt P08253); experiment: MMP dose response assay for determining IC50, MMP-2; conditions: for pIC50: recombinant enzyme, fluorescent-quench substrate 100 nM, read-out: MMP-2
T2 construct: human MMP-2 (amino acids 1-660); made in house
T2 sequence (P08253 110-660): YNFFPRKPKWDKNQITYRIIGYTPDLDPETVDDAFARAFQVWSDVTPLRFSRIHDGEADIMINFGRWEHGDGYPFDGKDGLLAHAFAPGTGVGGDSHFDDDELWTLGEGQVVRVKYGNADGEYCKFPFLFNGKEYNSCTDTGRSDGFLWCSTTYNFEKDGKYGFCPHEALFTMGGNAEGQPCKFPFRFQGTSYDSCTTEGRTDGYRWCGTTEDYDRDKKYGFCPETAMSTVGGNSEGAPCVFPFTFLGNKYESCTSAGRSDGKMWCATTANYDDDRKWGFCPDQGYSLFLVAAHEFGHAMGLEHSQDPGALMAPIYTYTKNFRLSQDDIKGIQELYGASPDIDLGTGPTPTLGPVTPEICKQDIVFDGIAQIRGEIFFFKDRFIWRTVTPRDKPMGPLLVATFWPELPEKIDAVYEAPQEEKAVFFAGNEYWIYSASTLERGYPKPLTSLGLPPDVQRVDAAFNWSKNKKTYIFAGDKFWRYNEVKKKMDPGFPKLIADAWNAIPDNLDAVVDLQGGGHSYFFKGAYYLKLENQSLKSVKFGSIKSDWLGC
Protocol: as §1, §2

[3] = target: T3, human MMP-9 (amino acids 107-446) (Homo sapiens, UniProt P14780); experiment: MMP dose response assay for determining IC50, MMP-9; conditions: recombinant enzyme, fluorescent-quench substrate 100 nM; read-out: MMP-9
T3 construct: human MMP-9 (amino acids 107-446); made in house
Protocol: as §1, §2

T3 sequence (P14780 107-446): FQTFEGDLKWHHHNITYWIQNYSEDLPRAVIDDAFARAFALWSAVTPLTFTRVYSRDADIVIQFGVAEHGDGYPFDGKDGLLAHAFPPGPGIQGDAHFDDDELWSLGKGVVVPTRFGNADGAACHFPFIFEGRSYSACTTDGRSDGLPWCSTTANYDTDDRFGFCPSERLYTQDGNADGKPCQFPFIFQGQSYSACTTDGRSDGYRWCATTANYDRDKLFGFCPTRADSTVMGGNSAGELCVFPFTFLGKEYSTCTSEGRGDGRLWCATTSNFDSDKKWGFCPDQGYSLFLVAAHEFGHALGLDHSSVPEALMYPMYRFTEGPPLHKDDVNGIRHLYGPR

pIC50 [1] | pIC50 [2] | pIC50 [3] | Structure (SMILES) | IC50 ([2]; MMP-2 (nM)) [nM]
< 5.00 | 7.77 | 8.55 | Cc1ccc(Oc2ccc(N(C[C@H](NCc3cccnc3)C(=O)NO)S(C)(=O)=O)cc2)cc1 [Example 35, N-Hydroxy (2S)-3-{N-[4-(4-methylphenoxy)phenyl],N-methanesulfonylamino}-2-(pyridine-3-yl)methylaminopropionamide] | –
< 5.00 | 7.70 | 8.10 | CS(=O)(=O)N(C[C@@H](C(=O)NO)N1CCNC(=O)C1)c1ccc(Oc2ccc(C(F)(F)F)cc2)cc1 [Example 87, N-Hydroxy (2S)-2-(3-oxopiperazin-1-yl)-3-{N-[4-(4-trifluoromethylphenoxy)phenyl],N-methanesulfonylamino}propionamide] | –
< 5.00 | 6.50 | 6.94 | CS(=O)(=O)N(C[C@H](NCCc1c[nH]c2ccccc12)C(=O)NO)c1ccc(Oc2ccc(C(F)(F)F)cc2)cc1 [Example 78] | –
< 5.00 | 6.47 | 7.66 | Cc1ccc(Oc2ccc(N(C[C@H](Nc3ccc(Cl)cc3)C(=O)NO)S(C)(=O)=O)cc2)cc1 [Example 43, N-Hydroxy (2S)-2-(4-chlorophenyl)amino-3-{N-[4-(4-methylphenoxy)phenyl],N-methanesulfonylamino}propionamide] | –
< 5.00 | 6.92 | 6.59 | CS(=O)(=O)N(C[C@@H](C(=O)NO)N1CCN(c2ccc(Cl)cc2)CC1)c1ccc(Oc2ccc(C(F)(F)F)cc2)cc1 [Example 77, N-Hydroxy (2S)-2-[4-(4-chlorophenyl)piperazin-1-yl]-3-{N-[4-(4-trifluoromethylphenoxy)phenyl],N-methanesulfonylamino}propionamide] | –
< 5.00 | 7.40 and 7.52 | 8.30 and 8.36 | CS(=O)(=O)N(C[C@H](O)C(=O)NO)c1ccc(Oc2ccc(Cl)cc2)cc1 [Compound 1, N-Hydroxy (2S)-2-hydroxy-3-{N-[4-(4-chlorophenoxy)phenyl], N-methanesulfonylamino}propionamide] | –
< 5.00 | 6.37 | 7.70 | Cc1ccc(Oc2ccc(N(C[C@H](Nc3ccc(F)c(Cl)c3)C(=O)NO)S(C)(=O)=O)cc2)cc1 [Example 42, N-Hydroxy (2S)-2-(3-chloro-4-fluorophenyl)amino-3-{N-[4-(4-methylphenoxy)phenyl],N-methanesulfonylamino}propionamide] | –
< 5.00 | 8.33 and 8.30 and 7.80 | 8.72 and 8.82 and 8.20 | CS(=O)(=O)N(C[C@@H](C(=O)NO)N1CCS(=O)(=O)CC1)c1ccc(Oc2ccc(C(F)(F)F)cc2)cc1 [Example 70, N-Hydroxy (2S)-2-[1,1-bis(oxo)thiomorpholin-4-yl]-3-{N-[4-(4-trifluoromethylphenoxy)phenyl],N-methanesulfonylamino}propionamide] | –
< 5.00 | 8.00 | 8.77 | Cc1ccc(Oc2ccc(N(C[C@H](NC3CCCC3)C(=O)NO)S(C)(=O)=O)cc2)cc1 [Example 37, N-Hydroxy (2S)-2-cyclopentylamino-3-{N-[4-(4-methylphenoxy)phenyl],N-methanesulfonylamino}propionamide] | –
< 5.00 | 6.24 | 7.03 | Cc1ccc(Oc2ccc(N(C[C@H](O)C(=O)NO)S(=O)(=O)Cc3ccccc3)cc2)cc1 [Example 14, N-Hydroxy (2S)-2-hydroxy-3-{N-[4-(4-methylphenoxy)phenyl],N-phenylmethylsulfonylamino}propionamide] | –
< 5.00 and 5.21 and 5.06 and 5.14 and 5.13 | 7.73 and 7.81 and 7.82 and 8.28 and 8.02 and 8.00 and 8.10 | – | Cc1ccc(Oc2ccc(N(C[C@H](Nc3ccccc3)C(=O)NO)S(C)(=O)=O)cc2)cc1 [Example 30, N-Hydroxy (2S)-3-{N-[4-(4-methylphenoxy)phenyl],N-methanesulfonylamino}-2-phenylaminopropionamide] | –
< 5.00 | – | 6.46 | Cc1ccc(Oc2ccc(N(C[C@H](O)C(=O)NO)S(=O)(=O)c3ccccc3)cc2)cc1 [Example 21, N-Hydroxy (2S)-2-hydroxy-3-{N-[4-(4-methylphenoxy)phenyl],N-phenylsulfonylamino}propionamide] | –
< 5.00 | – | – | CS(=O)(=O)N(C[C@@H](C(=O)NO)N1CCc2ccccc2C1)c1ccc(Oc2ccc(C(F)(F)F)cc2)cc1 [Example 73, N-Hydroxy (2S)-2-(1,2,3,4-tetrahydroisoquinolin-2-yl)-3-{N-[4-(4-trifluoromethylphenoxy)phenyl],N-methanesulfonylamino}propionamide] | –
< 5.00 | – | 6.54 | Cc1ccc(Oc2ccc(N(C[C@H](O)C(=O)NO)S(=O)(=O)C(C)C)cc2)cc1 [Example 16, N-Hydroxy (2S)-2-hydroxy-3-{N-[4-(4-methylphenoxy)phenyl],N-(2-propyl)sulfonylamino}propionamide] | –
– | 6.06 | 7.13 | Cc1ccc(Oc2ccc(N(C[C@H](Nc3ccc(OC(F)(F)F)cc3)C(=O)NO)S(C)(=O)=O)cc2)cc1 [Example 50, N-Hydroxy (2S)-3-{N-[4-(4-methylphenoxy)phenyl],N-methanesulfonylamino}-2-(4-trifluoromethoxyphenyl)aminopropionamide] | –
< 5.00 | – | 6.61 | Cc1ccc(Oc2ccc(N(C[C@H](O)C(=O)NO)S(=O)(=O)N(C)C)cc2)cc1 [Example 19, N-Hydroxy (2S)-2-hydroxy-3-{N-[4-(4-methylphenoxy)phenyl],N-(dimethylamino)sulfonylamino}propionamide] | –
– | 5.97 | 6.78 | Cc1ccc(Oc2ccc(N(C[C@H](Nc3cccc(OC(F)(F)F)c3)C(=O)NO)S(C)(=O)=O)cc2)cc1 [Example 52, N-Hydroxy (2S)-3-{N-[4-(4-methylphenoxy)phenyl],N-methanesulfonylamino}-2-(3-trifluoromethoxyphenyl)aminopropionamide] | –
– | 5.85 | 6.69 | CS(=O)(=O)N(C[C@H](O)C(=O)N(O)CCN1CCOCC1)c1ccc(Oc2ccc(Cl)cc2)cc1 [Example 101, N-Hydroxy,N-[2-(morpholin-4-yl)ethyl](2S)-2-hydroxy-3-{N-[4-(4-chlorophenoxy)phenyl],N-methanesulfonylamino}propionamide] | –
– | 8.06 | 8.51 | CC(C)N1CCN([C@@H](CN(c2ccc(Oc3ccc(Cl)cc3)cc2)S(C)(=O)=O)C(=O)NO)CC1 [Example 91, N-Hydroxy (2S)-3-{N-[4-(4-chlorophenoxy)phenyl],N-methanesulfonylamino}-2-[4-(2-propyl)piperazin-1-yl]Propionamide] | –
< 5.00 | 7.55 and 7.18 | – | Cc1ccc(C#Cc2ccc(N(C[C@H](O)C(=O)NO)S(C)(=O)=O)cc2)cc1 [Example 63, N-Hydroxy (2S)-2-hydroxy-3-{N-[4-(4-methylphenylacetylene)phenyl],N-methanesulfonylamino}propionamide] | –
– | 6.08 | 7.27 | CS(=O)(=O)N(C[C@H](NC(=O)C1CCOCC1)C(=O)NO)c1ccc(Oc2ccc(C(F)(F)F)cc2)cc1 [Example 93, N-Hydroxy (2S)-2-[(tetrahydropyran-4-yl)carbonylamino]-3-{N-[4-(4-trifluoromethylphenoxy)phenyl],N-methanesulfonylamino}propionamide] | –

Structure (SMILES) | pIC50 [1] | pIC50 [2] | pIC50 [3] | IC50 ([2]; MMP-2 (nM)) [nM]
COc1ccc(C#Cc2ccc(N(C[C@H](O)C(=O)NO)S(C)(=O)=O)cc2)cc1 [Example 61, N-Hydroxy (2S)-2-hydroxy-3-{N-[4-(4-methoxyphenylacetylene)phenyl],N-methanesulfonylamino}propionamide] | – | – | 7.04 | 31.6
Cc1ccc(Oc2ccc(N(C[C@@H](O)C(=O)NO)S(C)(=O)=O)cc2)cc1 [Example 7, N-Hydroxy (2R)-2-hydroxy-3-{N-[4-(4-methylphenoxy)phenyl],N-methanesulfonylamino}propionamide] | – | 7.09 and 7.28 | 7.69 and 8.50 | –
